According to patent US6511662B1, “Treatment of cytomegalovirus using aminopeptidase N” (priority 1993, dated 2003):
Where two headings read alike, the source gives them in different places.

Key:
[1] = system: Semliki Forest Virus (SFV); experiment: Semliki Forest Virus infection of HL734 cells, immunocytochemistry; assay type: cell-based; conditions: concentrations as in footnote d
From the text: (§1) FIG. 2. Ability to inhibit infection by compounds that interact with human aminopeptidase N. Panel a: HL734 cells were infected with CMV strain RC256 in the presence of serial dilutions of either U71 (▪) or control mouse ascites ([]). Infection was quantitatively determined by spectrophotometric measurement of the cleavage of p-nitrophenyl-β-D-galactopyranoside by β-gal. Panel b: HL734 were infected with CMV strain AD169 (▪) or Semliki Forest Virus (SFV) ([]) in the presence of increasing concentration of bestatin. Infection was quantitatively determined by immunocytochemistry using an antibody to the mIE protein of CMV or immune serum to SFV and enumeration of infected calls. Panel c: the binding of ^35S-HCMV to MRC-5 cells in the presence of mouse IgG (X) or antibody to APN (∘). Panel d: the aminopeptidase N activity on the surface of HL734 (▪), NIH-3T3 (∘), hAPN-3T3 ([]), or hAPNmut-3T3 (Δ) cells expressed as optical density of reaction product p-nitroanilide.
Method. Infection of HL734 with CMV RC256 was performed as described in FIG. 1 in the presence of serial dilutions of either UT71 or a control mouse ascites. Cells were washed, fixed with glutaraldhyde and assayed for β-gal expression by incubation with p-nitrophenyl-β-D-galactopyranoside (1 mg/ml) and the production of p-nitrophenol was measured spectrophotometrically at 410 nm. To measure the effect of aminopeptidase inhibitors on viral infection, HL734 were preincubated with increasing concentrations of bestatin for 1 hour at 37° C., infected with CMV strain AD169 at an MOI=1-10 or SFV at an MOI=30 for 1 hour at 37° C., washed, and incubated in fresh media for six hours at 37° C. After fixation in ice cold acetone/methanol (1/1), CMV nuclear antigens were detected with a mouse monoclonal to the 72K CMV mIE protein (NEW/Dupont, Inc.) followed by a phycoerythrine-labelled F(ab′)2 fragment of rabbit-anti mouse IgG Dakopatts, Inc). […] Binding of HCMV to MRC-5 cells was carried out by incubating increasing concentration of ^35S-HCMV with MRC-5 cells for 2 hours at 4° C. […] Cells were washed five times with hepes-buffered saline, solubilized with 0.5 M NaOH, and cell-associated ^35S-labelled virions was measured quantitatively by liquid scintillation counting. Aminopeptidase activity on intact cells was measured by plating 1-5×10^4 cells in 96-well plates, incubating overnight in fresh media, and the washed and incubated with alanine-p-nitroanilide (6 mM) at 37° C. At various times, the free p-nitroanilide released was measured spectrophoto-metrically at 410 nm. The aminopeptidase activity was normalized to cell number measured by BCA protein assay (Pierce). All measurements were determined in triplicate.

[2] = system: CMV strain AD169; experiment: CMV AD169 infection of HL734 cells in the presence of aminopeptidase inhibitors, mIE immunocytochemistry; assay type: cell-based, human cytomegalovirus
From the text: as §1, with “Ability to inhibit infection by compounds that interact with human aminopeptidase N. Panel a: HL734 cells were infected with CMV strain RC256 in the presence of serial dilutions of either U71 (▪) or control mouse ascites ([]).” left out
(§2) Method. Infection of HL734 with CMV RC256 was performed as described in FIG. 1 in the presence of serial dilutions of either UT71 or a control mouse ascites. Cells were washed, fixed with glutaraldhyde and assayed for β-gal expression by incubation with p-nitrophenyl-β-D-galactopyranoside (1 mg/ml) and the production of p-nitrophenol was measured spectrophotometrically at 410 nm. To measure the effect of aminopeptidase inhibitors on viral infection, HL734 were preincubated with increasing concentrations of bestatin for 1 hour at 37° C., infected with CMV strain AD169 at an MOI=1-10 or SFV at an MOI=30 for 1 hour at 37° C., washed, and incubated in fresh media for six hours at 37° C. After fixation in ice cold acetone/methanol (1/1), CMV nuclear antigens were detected with a mouse monoclonal to the 72K CMV mIE protein (NEW/Dupont, Inc.) followed by a phycoerythrine-labelled F(ab′)2 fragment of rabbit-anti mouse IgG Dakopatts, Inc). […] Binding of HCMV to MRC-5 cells was carried out by incubating increasing concentration of ^35S-HCMV with MRC-5 cells for 2 hours at 4° C. Incubation was carried out in the presence of mouse IgG (Sigma, Inc.) or anti-leuM7 (Becton Dickinson, Inc.) at a concentration of 16 μg/ml. Cells were washed five times with hepes-buffered saline, solubilized with 0.5 M NaOH, and cell-associated ^35S-labelled virions was measured quantitatively by liquid scintillation counting. Aminopeptidase activity on intact cells was measured by plating 1-5×10^4 cells in 96-well plates, incubating overnight in fresh media, and the washed and incubated with alanine-p-nitroanilide (6 mM) at 37° C. At various times, the free p-nitroanilide released was measured spectrophoto-metrically at 410 nm. The aminopeptidase activity was normalized to cell number measured by BCA protein assay (Pierce). All measurements were determined in triplicate.
(§3) To investigate whether the enzymatic activity of APN is necessary for CMV infection, four different aminopeptidase inhibitors, actinonin, bestatin, 2,2′-dipyridyl and 1,10-phenanthroline, were evaluated for their effect on enzymatic activity and CMV infection bestatin and actinonin are competitive inhibitors of arinoneptidases, ard 1,10-phenanthroline and 2,2′-dipyridyl inhibit aminopeptidase activity by chelating zinc required for enzyme function.

[3] = biological target: T1, human aminopeptidase N (Homo sapiens, UniProt P15144); experiment: Aminopeptidase activity on intact cells with substrate alanine-p-nitroanilide; assay type: cell-based; conditions: concentrations as in footnote d
T1 construct: endogenous in cells
Procedure: as §2
as §3, with “function. […] Toxicity of these substances, measured by trypan blue uptake in cells treated with the inhibitors, was less than 10% in the highest concentrations used (data not shown).” for “function.”

[4] = chemical inhibitors at maximum non-toxic concentration: actinonin 5.45 mM, bestatin 4.35 mM, 1,10-phenanthroline 0.45 mM, 2,2′-dipyridyl 3.74 mM
[5] = Human betaherpesvirus 5, AD169, read-out: 50% inhibitory dose for CMV infection

T1 sequence (P15144 whole entry): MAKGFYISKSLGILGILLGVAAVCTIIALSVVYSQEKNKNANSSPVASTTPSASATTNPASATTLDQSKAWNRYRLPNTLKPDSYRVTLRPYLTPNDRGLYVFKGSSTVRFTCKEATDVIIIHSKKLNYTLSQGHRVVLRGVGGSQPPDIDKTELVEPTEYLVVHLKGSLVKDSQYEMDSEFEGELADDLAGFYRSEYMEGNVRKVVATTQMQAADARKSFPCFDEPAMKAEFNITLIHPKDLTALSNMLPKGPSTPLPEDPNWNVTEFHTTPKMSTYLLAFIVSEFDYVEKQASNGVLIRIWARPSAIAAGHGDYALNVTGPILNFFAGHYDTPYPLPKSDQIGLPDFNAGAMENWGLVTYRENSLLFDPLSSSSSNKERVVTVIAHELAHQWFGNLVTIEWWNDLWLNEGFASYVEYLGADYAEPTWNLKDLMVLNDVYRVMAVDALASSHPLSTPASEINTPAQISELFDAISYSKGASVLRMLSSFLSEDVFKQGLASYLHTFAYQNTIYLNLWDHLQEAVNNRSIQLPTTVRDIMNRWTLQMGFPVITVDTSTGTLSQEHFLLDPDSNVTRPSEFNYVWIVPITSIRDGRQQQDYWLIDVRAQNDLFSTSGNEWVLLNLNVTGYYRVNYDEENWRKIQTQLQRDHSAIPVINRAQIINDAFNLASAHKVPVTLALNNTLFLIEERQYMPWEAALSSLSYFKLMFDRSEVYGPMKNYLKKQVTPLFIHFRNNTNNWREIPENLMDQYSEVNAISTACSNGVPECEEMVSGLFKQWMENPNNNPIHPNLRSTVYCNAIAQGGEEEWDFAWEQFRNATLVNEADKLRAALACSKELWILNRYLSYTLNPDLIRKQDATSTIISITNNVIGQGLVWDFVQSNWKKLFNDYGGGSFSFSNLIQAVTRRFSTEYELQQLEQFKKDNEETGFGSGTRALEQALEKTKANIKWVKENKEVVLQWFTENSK

Row | SMILES | Inhibition of SFV Infection [1] | IC50 ([2]; HL734 cells, CMV AD169, read-out: 50% inhibitory dose for CMV infection) | Inhibition of CMV Infection [2, 4] | Inhibition of aminopeptidase activity [3] | IC50 [2, 5] | inhibition at 4350 µM ([2]; Human betaherpesvirus 5, AD169, read-out: Inhibition of CMV Infection) | inhibition at 5450 µM ([2]; Human betaherpesvirus 5, AD169, chemical inhibitors at maximum non-toxic concentration: actinonin 5.45 mM, bestatin 4.35 mM, 1,10-phenanthroline 0.45 mM, 2,2′-dipyridyl 3.74 mM) | IC50 ([2]; Human betaherpesvirus 5, HL734 cells, CMV AD169, read-out: 50% inhibitory dose for CMV infection)
1 | c1ccc(-c2ccccn2)nc1 [2,2′-dipyridyl] | − (− = no inhibition) | 2.8 mM | + (+ = >50 inhibition compared to mouse IgG control) | + (+ = >50 inhibition compared to mouse IgG control) | – | – | – | –
2 | CC(C)C[C@H](NC(=O)[C@@H](O)[C@H](N)Cc1ccccc1)C(=O)O [bestatin] | − (− = no inhibition) | – | – | + (+ = >50 inhibition compared to mouse IgG control) | 2.5 mM | > 50% | – | –
3 | CCCCC[C@H](CC(=O)NO)C(=O)N[C@H](C(=O)N1CCC[C@H]1CO)C(C)C [actinonin] | − (− = no inhibition) | – | – | + (+ = >50 inhibition compared to mouse IgG control) | – | – | > 50% | 3.3 mM
4 | c1cnc2c(c1)ccc1cccnc12 [1,10-phenanthroline] | − (− = no inhibition) | – | + (+ = >50 inhibition compared to mouse IgG control) | + (+ = >50 inhibition compared to mouse IgG control) | 0.25 mM | – | – | –
